This note sets out measurements from patent publication US20220133761A1, “NEUTROPHIL APOPTOSIS INDUCED BY NANOPARTICLES FOR TREATING INFLAMMATORY DISEASES” (WASHINGTON STATE UNIVERSITY, priority 2020, published 2022).

A short description of series [1]: Serum stability of nanoparticles in PBS with 20% FBS. Format: physicochemical. The following applies: pH 7.4, incubation for 4 days. How it is done:
Particle size and polydispersity indexes (PDI) were measured using Malvern Zetasizer Nano90 (Westborough, Mass.). The samples were incubated in PBS at pH 7.4 for 2 h, and the measurements were conducted in a 1.0 mL quartz cuvette using a diode laser of 633 nm at 25° C. and a scattering angle was fixed at 90°. To evaluate their serum stability, nanoparticles were dispersed in 20% FBS PBS solution (pH 7.4) at a final concentration of 1 mg/mL. Nanoparticle sizes were measured at the predefined time points. Transmission electron microscopy (TEM) of nanoparticles was also performed using a FEI Technai G2 20 Twin TEM (Hillsboro, Oreg.).

The test system of series [2] is differentiated HL60 cells. Briefly: Uptake of DOX-hyd-BSA NPs by differentiated HL60 cells. The series is classed as cell-based, human. Conditions: 10^6 cells/mL, 2 h at different DOX concentrations; time course at 30 μg/mL DOX. The method, then:
FIG. 5C and FIG. 5D show resultant uptake data of the present application, wherein DOX-hyd-BSA NPs by differentiated HL60 cells were evaluated in vitro.

The next series relates to activated neutrophils. Nature of the series: Nanoparticle uptake by blood leukocytes in LPS-induced inflammation mouse model (CLSM, flow cytometry). Format: in vivo. The method, then:
To investigate cell uptake specificity of BSA NPs in circulation, blood cells were isolated and studied using confocal laser scanning microscopy (CLSM) and flow cytometry. Briefly, 4 h after LPS challenge (i.p., 20 mg kg^−1), DOX-hyd-BSA NPs were intravenously injected into mice. Healthy mice were used as control. 3 h later, the whole blood was harvested in a heparinized tube from the heart. Neutrophils in blood were isolated by Pluriselect anti-mouse LY-6G S-pluribeads according to the manufacturer's protocol (Pluriselect, Spring Valley, Calif.). The cells were fixed with 2 mL of 4% paraformaldehyde for 30 min and were stained with Alexa Fluor 488-labeled anti-mouse LY-6G antibody. A slide smear of cell solution was prepared by 7620 Cytopro Cytocentrifuge (ELITech, Princeton, N.J.). A drop of Prolong Gold Antifade reagent with DAPI (Invitrogen, Eugene, Oreg.) was added on the cells, and a coverslip was applied on the slide. 4 h later, the cells were observed using a Nikon A1R^+ confocal laser scanning microscope.
Flow cytometry to quantify neutrophil uptake of nanoparticles was also utilized. Blood leukocytes were isolated to determine the specificity of uptake of NPs in blood. In brief, 3 mL Histopaque 10771 was carefully layered on top of 3 mL Histopaque 11191 in a 15 mL centrifuge tube. […]

The subject of series [3] is LPS-challenged mice. Nature of the series: Survival study in sepsis mouse model (i.p. LPS 50 mg/kg). The series is classed as in vivo. The following applies: 72 h, 0.2 mg/kg DOX i.v. 4 h after i.p. LPS 50 mg/kg. How it is done: Adult CD-1 mice were i.p. injected with LPS (50 mg/kg) in the mouse sepsis model. 4 hours later, the LPS-challenged mice were grouped randomly (10 mice per group) and treated (i.v.) with PBS, free DOX (0.2 mg/kg), and prodrug DOX-hyd-BSA NPs (equal to 0.2 mg/kg of free DOX). The animals were monitored every 6 h in the first 12 h followed by monitoring mice every 12 h in 72 h.

Series [4] has as its system heart, liver, spleen, lung and kidney. Nature of the series: Toxicity by histological analysis (H&E staining of major organs). Conditions: 0.2 mg/kg DOX. The method, then:
After different treatments (healthy, PBS, 4 mg/kg of free DOX, 0.2 mg/kg of free DOX, DOX-hyd-BSA NPs and DOX-ab-BSA NPs, equal to 0.2 mg/kg of DOX for NPs), mice were sacrificed by carbon dioxide asphyxiation. […] The samples were imaged by a microscope (ZEISS, Observer. Z1, USA).

The next series relates to cerebral I/R mouse model. Briefly: Middle cerebral artery occlusion (MCAO) cerebral I/R mouse model. The series is classed as in vivo. How it is done: CD1 mice were used. Mice were anesthetized using 100 mg/kg of ketamine and 5 mg/kg of xylazine. They were positioned in the supine position on a heating pad. A carotid artery (CA) was exposed via the midline neck incision. An external carotid artery (ECA) was separated and occulated with two knots. Next, the internal carotid artery (ICA) was isolated, and the CA and ICA were clipped. A small hole was cut in the ECA above the second knot. A 6-0 medium MCAO suture was then introduced into ICA. Mice were kept for 60 min after occlusion in a heated cage, and the suture was withdrawn for reperfusion. Finally, the skin was closed and the mice were returned to the individual cage.
The damaged brain tissues were collected 24 h after MCAO and homogenized in PBS with 5% hexadecyltrimethylammonium bromide (HTAB). The homogenate was sonicated, and centrifuged at 13,000 rpm for 10 min. Next, 10 μL supernatant was loaded into each well of a 96-well plate. A solution of o-Dianisidine dihydrochloride with 0.0005% hydrogen peroxide in potassium phosphate buffer was added to the samples. Absorbance was measured at 450 nm. MPO activity is expressed as change in absorbance per minute per gram of tissue.
The damaged brain tissues of mice were collected 24 h after MCAO surgery and homogenized in PBS buffer. The level of cytokines (TNF-α, IL-1β, IL-6) was quantified using commercial ELISA assay as aforementioned.
Videos were taken 24 h after MCAO surgery and neurological deficit scores were given by two people. The scores are divided into five grades for neurological scores of mice after cerebral ischemia.

A further series has as its system human neutrophils. Briefly: Uptake of nanoparticles by human neutrophils in vitro (flow cytometry). The series is classed as cell-based. The following applies: 30 ug/ml, 2 h. How it is done: FIG. 15 show novel data of uptake of DOX-hdy-BSA NPs by human neutrophils. Human neutrophils were incubated with DOX-hyd-BSA NPs (the concentration at 30 ug/ml) for 2 h, and then the cells were washed, and they were analyzed by flowcytometry.
It is also to be noted that the methods herein also pertain to making human albumin nanoparticles similar to BSA NPs. […] Human neutrophils were incubated with DOX-hyd-BSA NPs (the concentration at 30 ug/ml) for 2 h, and then the cells were washed and analyzed by flowcytometry.

Series [5] concerns LPS-challenged mice. Briefly: Second LPS hit (i.t.) in mice that survived sepsis after NP treatment.
Protocol: The mice were challenged with LPS (i.p., 50 mg/kg) or PBS (control). 4 h later, the LPS-challenged mice were i.v. treated with DOX-hyd-BSA NPs at 0.2 mg/kg of DOX. The control mice were not treated with LPS and NPs. 72 h later, all survival and control (healthy) mice were challenged with LPS (i.t., 10 mg/kg).
The combinatory experiments were designed in which a mouse was i.p. challenged with LPS to cause sepsis, and then a mouse was treated with DOX-loaded NPs 4 h after the LPS challenge. At 72 h after the LPS challenge, the survival mouse was i.t. administered to examine whether neutrophils can transmigrate and respond to the second hit of LPS (see FIG. 10M of experimental protocol diagram).
Where [6] appears, read: 0.2 mg/kg DOX i.v. 1 h after reperfusion, 22 h post-injection, vs free DOX and PBS.

For the substance DOX-hyd-BSA NPs, the “serum stability (aggregation, diameter change)” value in series [1] is given as “no aggregation (diameter change) was observed”. The “DOX uptake by cells” value in series [2] is “taken up efficiently”. The “neutrophil uptake of NPs” value with activated neutrophils (4 h after i.p. LPS 20 mg/kg, blood 3 h after i.v. NPs) is listed as “neutrophil uptake was observed”. For the same substance, the “uptake by T cells, monocytes and natural killer (NK) cells in blood” value in the series on activated neutrophils (LPS-challenged mice, flow cytometry) is “did not take up BSA NPs”. Also, the mouse survival in the series on LPS-challenged mice [3] amounted to 70%. For the same substance, the “tissue or cellular damage in H&E sections of heart, liver, spleen, lung, kidney” value in series [4] was “did not show any noticeable signs of tissue or cellular damage”. Also, in the series with cerebral I/R mouse model (setting [6]), the “cytokines in the brain (TNF-α, IL-1β, IL-6)” value is given as “significantly reduced” and the “neutrophil numbers in the brain (MPO activity)” value is reported as “significantly reduced”. In the series on cerebral I/R mouse model (0.2 mg/kg of DOX, 24 h after MCAO), the “neurological deficits (behavior scores)” value was “enhanced mouse neurological recovery and improved mouse movements”. The “uptake by human neutrophils” value in the series on human neutrophils is reported as “can be efficiently taken up”. Also, the “body weight of mice that survived sepsis” value in the series on LPS-challenged mice [5] (0.2 mg (DOX)/kg dose) is recorded as “returned to their initial weight”. For the same substance, in the series on LPS-challenged mice [5] (i.t. LPS 10 mg/kg at 72 h, BALF at 84 h, vs healthy mice), the “response of neutrophils to second LPS challenge (BALF neutrophils, cytokines)” value is “can immediately respond to the challenge of LPS like what the healthy mice did”.
